The text below walks through data of US10954219B2, “1,3-benzodioxole derivative” (DAIICHI SANKYO COMPANY, LIMITED, priority 2014, dated 2021).

For one assay, the target named is T1, PRC2-EZH2 (WT EZH2) (Homo sapiens, UniProt Q15910).
T1 construct: made in house
In words: EZH2 methyltransferase inhibitory activity evaluation. Format: biochemical. As to conditions: PRC2-EZH2, biotin-H3 peptide, 3H-SAM, 2 hours.

The subject of assay [1] is Intracellular H3K27me3 in HCT116 cells. In words: Intracellular H3K27me3 inhibitory activity evaluation. Format: cell-based. Conditions: Homo sapiens, HCT-116, 72 h, 3 days, AlphaLISA, read-out: Test Example 3 H3K27me3 inhibition (HCT116) IC50.
Description: The HCT116 cells were purchased from American Type Culture Collection (ATCC). […] Intracellular H3K27me3 was quantified using AlphaLISA H3K27me3 Cellular Detection Kit (PerkinElmer, Inc., #AL722F). The cells thus cultured in each well were washed with 100 μL of PBS. Cell-Histone Lysis buffer diluted 6-fold with PBS was added thereto at 80 μL/well, and the plate was then incubated at room temperature for 15 minutes while shaken. Then, Cell-Histone Extraction buffer was added thereto at 40 μL/well, and the plate was incubated at room temperature for 10 minutes while shaken. […] An AlphaLISA anti-H3K27me3 Acceptor beads/Biotinylated Antibody anti-Histone H3 (C-ter) mixed solution was added thereto at 3.3 μL/well, and the plate was incubated at room temperature for 60 minutes. Then, Streptavidin (SA)-coated Donor beads were added thereto at 3.3 μL/well, and the plate was incubated at room temperature for 30 minutes with the plate shielded from light.
The next assay concerns the target PRC2-EZH1 (WT EZH1) (Homo sapiens, UniProt Q92800). Kind of assay: EZH1 methyltransferase inhibitory activity evaluation.

Structures are written as SMILES. Where a name gives a salt, the structure may show the parent alone.

Sequence of PRC2-EZH1 (WT EZH1) (Q92800 whole entry): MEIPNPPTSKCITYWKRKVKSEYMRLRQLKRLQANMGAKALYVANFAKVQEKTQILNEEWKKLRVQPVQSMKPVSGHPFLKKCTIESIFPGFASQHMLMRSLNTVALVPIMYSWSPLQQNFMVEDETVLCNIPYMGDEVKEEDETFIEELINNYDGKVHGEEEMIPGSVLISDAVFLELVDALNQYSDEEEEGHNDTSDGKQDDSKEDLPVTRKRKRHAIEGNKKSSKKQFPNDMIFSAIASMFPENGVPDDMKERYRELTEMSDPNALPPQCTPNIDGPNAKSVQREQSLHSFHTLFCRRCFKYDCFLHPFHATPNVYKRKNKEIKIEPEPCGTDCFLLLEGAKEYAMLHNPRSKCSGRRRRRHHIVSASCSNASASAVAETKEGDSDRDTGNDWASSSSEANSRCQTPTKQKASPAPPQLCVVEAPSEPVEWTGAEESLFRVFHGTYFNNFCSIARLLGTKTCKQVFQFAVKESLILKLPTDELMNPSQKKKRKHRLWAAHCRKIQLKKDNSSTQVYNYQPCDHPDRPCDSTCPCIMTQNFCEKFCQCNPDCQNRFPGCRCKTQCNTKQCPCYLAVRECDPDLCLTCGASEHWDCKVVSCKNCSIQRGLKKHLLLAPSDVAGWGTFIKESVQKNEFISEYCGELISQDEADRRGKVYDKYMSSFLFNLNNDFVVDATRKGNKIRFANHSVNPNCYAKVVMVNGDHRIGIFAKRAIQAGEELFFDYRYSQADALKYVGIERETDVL
Sequence of PRC2-EZH1 (WT EZH1) (O75530 whole entry partner): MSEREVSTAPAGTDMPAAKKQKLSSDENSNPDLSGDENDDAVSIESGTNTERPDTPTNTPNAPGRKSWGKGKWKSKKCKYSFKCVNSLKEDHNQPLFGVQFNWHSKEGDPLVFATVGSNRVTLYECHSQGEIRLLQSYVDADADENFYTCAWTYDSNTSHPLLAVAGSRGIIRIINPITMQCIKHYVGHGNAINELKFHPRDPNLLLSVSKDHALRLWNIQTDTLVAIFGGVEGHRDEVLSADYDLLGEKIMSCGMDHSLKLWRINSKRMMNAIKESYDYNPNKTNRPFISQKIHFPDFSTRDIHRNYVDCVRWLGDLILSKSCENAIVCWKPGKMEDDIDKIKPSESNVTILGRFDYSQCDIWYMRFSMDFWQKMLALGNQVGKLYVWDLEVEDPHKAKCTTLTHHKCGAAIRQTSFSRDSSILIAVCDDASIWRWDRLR
Sequence of PRC2-EZH1 (WT EZH1) (Q15022 whole entry partner): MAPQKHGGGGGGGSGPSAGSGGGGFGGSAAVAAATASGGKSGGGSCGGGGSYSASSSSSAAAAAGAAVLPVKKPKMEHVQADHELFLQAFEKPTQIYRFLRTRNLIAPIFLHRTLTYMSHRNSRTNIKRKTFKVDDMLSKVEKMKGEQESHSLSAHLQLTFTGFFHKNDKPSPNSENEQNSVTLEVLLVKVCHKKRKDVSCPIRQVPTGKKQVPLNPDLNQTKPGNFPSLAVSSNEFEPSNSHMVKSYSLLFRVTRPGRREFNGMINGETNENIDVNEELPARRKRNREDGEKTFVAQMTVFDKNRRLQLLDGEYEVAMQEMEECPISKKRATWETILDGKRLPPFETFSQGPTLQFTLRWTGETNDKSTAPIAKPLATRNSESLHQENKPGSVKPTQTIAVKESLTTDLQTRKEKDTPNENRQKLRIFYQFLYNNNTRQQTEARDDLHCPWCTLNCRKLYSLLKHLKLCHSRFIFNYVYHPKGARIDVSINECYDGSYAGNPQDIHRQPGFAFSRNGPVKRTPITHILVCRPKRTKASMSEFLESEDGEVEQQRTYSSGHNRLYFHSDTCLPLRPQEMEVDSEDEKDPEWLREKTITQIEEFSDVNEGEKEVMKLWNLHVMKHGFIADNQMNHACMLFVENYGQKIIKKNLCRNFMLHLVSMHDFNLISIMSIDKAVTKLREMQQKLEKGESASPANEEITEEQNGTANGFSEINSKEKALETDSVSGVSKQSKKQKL
Sequence of PRC2-EZH1 (WT EZH1) (Q09028 whole entry partner): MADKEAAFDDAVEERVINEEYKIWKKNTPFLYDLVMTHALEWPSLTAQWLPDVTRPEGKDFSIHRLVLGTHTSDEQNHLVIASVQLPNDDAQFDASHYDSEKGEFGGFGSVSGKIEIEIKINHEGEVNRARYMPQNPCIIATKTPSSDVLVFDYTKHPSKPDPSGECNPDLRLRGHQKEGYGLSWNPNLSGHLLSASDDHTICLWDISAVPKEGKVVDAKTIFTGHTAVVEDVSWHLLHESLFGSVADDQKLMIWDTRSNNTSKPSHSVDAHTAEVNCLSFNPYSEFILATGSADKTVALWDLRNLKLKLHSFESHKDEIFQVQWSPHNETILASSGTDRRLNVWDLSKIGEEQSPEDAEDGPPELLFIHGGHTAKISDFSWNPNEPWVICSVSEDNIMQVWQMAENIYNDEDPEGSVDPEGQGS
Sequence of PRC2-EZH1 (WT EZH1) (Q6ZN18 whole entry partner): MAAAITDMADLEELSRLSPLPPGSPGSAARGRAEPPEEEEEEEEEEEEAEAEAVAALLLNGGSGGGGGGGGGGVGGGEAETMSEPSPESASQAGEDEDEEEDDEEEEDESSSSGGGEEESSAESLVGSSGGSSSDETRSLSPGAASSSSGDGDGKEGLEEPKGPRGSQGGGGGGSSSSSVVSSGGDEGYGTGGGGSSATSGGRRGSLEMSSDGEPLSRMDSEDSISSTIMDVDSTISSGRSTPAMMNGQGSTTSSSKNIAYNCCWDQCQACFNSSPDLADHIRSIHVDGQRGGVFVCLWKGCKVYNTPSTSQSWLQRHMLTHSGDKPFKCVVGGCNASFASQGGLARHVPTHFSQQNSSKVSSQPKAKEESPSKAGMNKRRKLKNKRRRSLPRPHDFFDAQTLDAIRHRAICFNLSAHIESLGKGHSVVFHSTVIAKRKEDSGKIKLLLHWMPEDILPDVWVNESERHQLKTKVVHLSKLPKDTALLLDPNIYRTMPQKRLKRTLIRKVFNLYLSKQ
T1 sequence (Q15910 whole entry): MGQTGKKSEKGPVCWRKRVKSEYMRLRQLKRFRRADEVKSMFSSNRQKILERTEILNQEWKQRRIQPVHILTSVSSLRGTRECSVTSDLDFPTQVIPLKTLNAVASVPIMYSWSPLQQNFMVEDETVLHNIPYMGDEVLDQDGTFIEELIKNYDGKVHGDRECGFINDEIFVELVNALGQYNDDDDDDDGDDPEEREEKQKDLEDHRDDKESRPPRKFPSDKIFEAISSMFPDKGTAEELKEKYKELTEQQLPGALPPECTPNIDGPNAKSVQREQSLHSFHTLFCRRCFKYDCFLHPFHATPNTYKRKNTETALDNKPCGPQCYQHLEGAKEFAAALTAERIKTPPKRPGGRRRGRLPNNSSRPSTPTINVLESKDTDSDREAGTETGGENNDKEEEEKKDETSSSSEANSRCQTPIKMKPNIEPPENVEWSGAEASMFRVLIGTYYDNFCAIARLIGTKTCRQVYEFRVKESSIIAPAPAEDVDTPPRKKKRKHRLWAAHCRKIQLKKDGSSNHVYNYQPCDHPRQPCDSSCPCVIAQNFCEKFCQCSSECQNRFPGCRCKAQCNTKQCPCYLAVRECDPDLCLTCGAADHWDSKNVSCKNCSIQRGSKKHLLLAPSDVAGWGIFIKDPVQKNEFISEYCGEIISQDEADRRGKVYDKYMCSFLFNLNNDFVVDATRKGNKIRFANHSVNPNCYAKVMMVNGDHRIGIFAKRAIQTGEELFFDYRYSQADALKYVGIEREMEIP
T1 sequence (O75530 whole entry partner): as the sequence (O75530 whole entry partner) above
T1 sequence (Q15022 whole entry partner): as the sequence (Q15022 whole entry partner) above
Description for PRC2-EZH1 (WT EZH1): EZH1 Methyltransferase Inhibitory Activity Evaluation
(§1) Then, the residual radioactivity was measured using TopCount NXT HTS (PerkinElmer, Inc., model C384V01).
Description for PRC2-EZH2 (WT EZH2): EZH2 Methyltransferase Inhibitory Activity Evaluation
as §1

Take `CC(=O)c1cc(C(=O)NCc2c(C)cc(C)[nH]c2=O)c(C)c2c1OC(C)([C@H]1CC[C@H](N(C)C)CC1)O2` (relative stereo) [Example 72, 7-Acetyl-2-[trans-4-(dimethylamino)cyclohexyl]-N-[(4,6-dimethyl-2-oxo-1,2-dihydropyridin-3-yl)methyl]-2,4-dimethyl-1,3-benzodioxole-5-carboxamide hydrochloride]: the IC50 at PRC2-EZH2 (WT EZH2) amounted to 0.017 µM; in assay [1], 0.013 µM; against PRC2-EZH1 (WT EZH1), 0.076 µM.

Turning to `CCc1cc(C)[nH]c(=O)c1CNC(=O)c1cc(-c2ccc(N3CCN(CC)CC3)nc2)c2c(c1C)OC(C)([C@H]1CC[C@H](N(C)C)CC1)O2` (relative stereo) [Example 73, 2-[trans-4-(Dimethylamino)cyclohexyl]-N-[(4-ethyl-6-methyl-2-oxo-1,2-dihydropyridin-3-yl)methyl]-7-[6-(4-ethylpiperazin-1-yl)-3-pyridyl]-2,4-dimethyl-1,3-benzodioxole-5-carboxamide hydrochloride], the IC50 at PRC2-EZH2 (WT EZH2) was 0.022 µM; in assay [1] it was 0.0061 µM; against PRC2-EZH1 (WT EZH1) it was 0.012 µM.

As for `CCCc1cc(C)[nH]c(=O)c1CNC(=O)c1cc(-c2ccc(N3CCN(CC)CC3)nc2)c2c(c1C)OC(C)([C@H]1CC[C@H](N(C)C)CC1)O2` (relative stereo) [Example 74, 2-[trans-4-(Dimethylamino)cyclohexyl]-7-[6-(4-ethylpiperazin-1-yl)-3-pyridyl]-2,4-dimethyl-N-[(6-methyl-2-oxo-4-propyl-1,2-dihydropyridin-3-yl)methyl]-1,3-benzodioxole-5-carboxamide], the results for the concentration for half-maximal inhibition (IC50) (against PRC2-EZH2 (WT EZH2); in assay [1]; at PRC2-EZH1 (WT EZH1)) were 0.029 µM, 0.023 µM and 0.013 µM, respectively.

Take `CCc1cc(C)[nH]c(=O)c1CNC(=O)c1cc(-c2cnn(C)c2)c2c(c1C)OC(C)([C@H]1CC[C@H](N(C)C)CC1)O2` (relative stereo) [Example 75, 2-[trans-4-(Dimethylamino)cyclohexyl]-N-[(4-ethyl-6-methyl-2-oxo-1,2-dihydropyridin-3-yl)methyl]-2,4-dimethyl-7-(1-methylpyrazol-4-yl)-1,3-benzodioxole-5-carboxamide hydrochloride]: the IC50 against PRC2-EZH2 (WT EZH2) was determined as 0.026 µM; in assay [1], 0.011 µM; at PRC2-EZH1 (WT EZH1) it was 0.021 µM.

Turning to `CCc1cc(C(=O)NCc2c(C)cc(C)[nH]c2=O)c(C)c2c1OC(C)([C@H]1CC[C@H](N(C)C)CC1)O2` (relative stereo) [Example 76, 2-[trans-4-(Dimethylamino)cyclohexyl]-N-[(4,6-dimethyl-2-oxo-1,2-dihydropyridin-3-yl)methyl]-7-ethyl-2,4-dimethyl-1,3-benzodioxole-5-carboxamide], the IC50 was 0.012 µM against PRC2-EZH2 (WT EZH2), 0.00088 µM in assay [1] and 0.02 µM at PRC2-EZH1 (WT EZH1).

`Cc1cc(C)c(CNC(=O)c2cc(C)c3c(c2C)O[C@@](C)([C@H]2CC[C@H](N(C)C)CC2)O3)c(=O)[nH]1` (single isomer, unassigned) [Example 48]: the results for the IC50 (at PRC2-EZH2 (WT EZH2); in assay [1]; at PRC2-EZH1 (WT EZH1)) were 0.008 µM, 0.00048 µM and 0.0089 µM, respectively.

As for `Cc1cc(C)c(CNC(=O)c2cc(Br)c3c(c2C)OC(C)(C2CCOC2)O3)c(=O)[nH]1` (stereo not drawn) [Example 1, 7-Bromo-N-[(4,6-dimethyl-2-oxo-1,2-dihydropyridin-3-yl)methyl]-2,4-dimethyl-2-(tetrahydrofuran-3-yl)-1,3-benzodioxole-5-carboxamide], the IC50 against PRC2-EZH2 (WT EZH2) worked out at 0.024 µM; in assay [1], 0.029 µM; on PRC2-EZH1 (WT EZH1) it was 0.14 µM.

`Cc1cc(C)c(CNC(=O)c2cc(Br)c3c(c2C)OC(C)(C24CC(N(C)C)(C2)C4)O3)c(=O)[nH]1` (stereo not drawn) [Example 3, 7-Bromo-2-[3-(dimethylamino)-1-bicyclo[1.1.1]pentanyl]-N-[(4,6-dimethyl-2-oxo-1,2-dihydropyridin-3-yl)methyl]-2,4-dimethyl-1,3-benzodioxole-5-carboxamide]: the figures for the IC50 (on PRC2-EZH2 (WT EZH2); in assay [1]; on PRC2-EZH1 (WT EZH1)) were 0.03 µM, 0.026 µM and 0.66 µM, respectively.

For `Cc1cc(C)c(CNC(=O)c2cc(Br)c3c(c2C)OC(C)(C2CC4(CC(N(C)C)C4)C2)O3)c(=O)[nH]1` (stereo not drawn) [Example 4, 7-Bromo-2-[2-(dimethylamino)spiro[3.3]heptan-6-yl]-N-[(4,6-dimethyl-2-oxo-1,2-dihydropyridin-3-yl)methyl]-2,4-dimethyl-1,3-benzodioxole-5-carboxamide], the results for the IC50 (at PRC2-EZH2 (WT EZH2); in assay [1]; on PRC2-EZH1 (WT EZH1)) were 0.025 µM, 0.0083 µM and 0.13 µM, respectively.

Regarding `CCN1CC2(CC(C3(C)Oc4c(Br)cc(C(=O)NCc5c(C)cc(C)[nH]c5=O)c(C)c4O3)C2)C1` (stereo not drawn) [Example 5, 7-Bromo-N-[(4,6-dimethyl-2-oxo-1,2-dihydropyridin-3-yl)methyl]-2-(2-ethyl-2-azaspiro[3.3]heptan-6-yl)-2,4-dimethyl-1,3-benzodioxole-5-carboxamide], the values for the IC50 (against PRC2-EZH2 (WT EZH2); in assay [1]; against PRC2-EZH1 (WT EZH1)) were 0.015 µM, 0.051 µM and 0.25 µM, respectively.

Take `Cc1cc(C)c(CNC(=O)c2cc(Br)c3c(c2C)OC(C)(C2CCN(C)C2)O3)c(=O)[nH]1` (stereo not drawn) [Example 6, 7-Bromo-N-[(4,6-dimethyl-2-oxo-1,2-dihydropyridin-3-yl)methyl]-2,4-dimethyl-2-(1-methylpyrrolidin-3-yl)-1,3-benzodioxole-5-carboxamide]: the IC50 was determined as 0.039 µM against PRC2-EZH2 (WT EZH2), 0.045 µM in assay [1] and 0.51 µM against PRC2-EZH1 (WT EZH1).

As to `CCN1CCC([C@@]2(C)Oc3c(Br)cc(C(=O)NCc4c(C)cc(C)[nH]c4=O)c(C)c3O2)CC1` [Example 7, (2R)-7-Bromo-N-[(4,6-dimethyl-2-oxo-1,2-dihydropyridin-3-yl)methyl]-2-(1-ethyl-4-piperidyl)-2,4-dimethyl-1,3-benzodioxole-5-carboxamide], the IC50 against PRC2-EZH2 (WT EZH2) came to 0.0036 µM; in assay [1] it was 0.0084 µM; on PRC2-EZH1 (WT EZH1), 0.038 µM.

On to `Cc1cc(C)c(CNC(=O)c2cc(Br)c3c(c2C)O[C@@](C)(C2CCN(C)CC2)O3)c(=O)[nH]1` [Example 8, (2R)-7-Bromo-N-[(4,6-dimethyl-2-oxo-1,2-dihydropyridin-3-yl)methyl]-2,4-dimethyl-2-(1-methyl-4-piperidyl)-1,3-benzodioxole-5-carboxamide], for which the IC50 is 0.016 µM at PRC2-EZH2 (WT EZH2), 0.006 µM in assay [1] and 0.097 µM against PRC2-EZH1 (WT EZH1).

For the compound `COCCN1CCC([C@@]2(C)Oc3c(Br)cc(C(=O)NCc4c(C)cc(C)[nH]c4=O)c(C)c3O2)CC1` [Example 10, (2R)-7-Bromo-N-[(4,6-dimethyl-2-oxo-1H-pyridin-3-yl)methyl]-2-[l-(2-methoxyethyl)-4-piperidyl]-2,4-dimethyl-1,3-benzodioxole-5-carboxamide], the IC50 at PRC2-EZH2 (WT EZH2) turned out to be 0.011 µM; in assay [1], 0.018 µM; at PRC2-EZH1 (WT EZH1) it was 0.13 µM.

In the case of `CCCc1cc(C)[nH]c(=O)c1CNC(=O)c1cc(Br)c2c(c1C)O[C@@](C)(C1CCN(CC)CC1)O2` [Example 12, (2R)-7-Bromo-2-(1-ethyl-4-piperidyl)-2,4-dimethyl-N-[(6-methyl-2-oxo-4-propyl-1,2-dihydropyridin-3-yl)methyl]-1,3-benzodioxole-5-carboxamide], the results for the half-inhibitory concentration (IC50) (on PRC2-EZH2 (WT EZH2); in assay [1]; against PRC2-EZH1 (WT EZH1)) were 0.028 µM, 0.14 µM and 0.2 µM, respectively.

`Cc1cc(C)c(CNC(=O)c2cc(Br)c3c(c2C)OC(C)(CC2CCN(C)CC2)O3)c(=O)[nH]1` (stereo not drawn) [Example 25, 7-Bromo-N-[(4,6-dimethyl-2-oxo-1,2-dihydropyridin-3-yl)methyl]-2,4-dimethyl-2-[(1-methyl-4-piperidyl)methyl]-1,3-benzodioxole-5-carboxamide]: the values for the half-inhibitory concentration (IC50) (on PRC2-EZH2 (WT EZH2); in assay [1]; against PRC2-EZH1 (WT EZH1)) were 0.012 µM, 0.045 µM and 0.11 µM, respectively.

For the compound `CCN1CCC(CC2(C)Oc3c(Br)cc(C(=O)NCc4c(C)cc(C)[nH]c4=O)c(C)c3O2)CC1` (stereo not drawn) [Example 26, 7-Bromo-N-[(4,6-dimethyl-2-oxo-1,2-dihydropyridin-3-yl)methyl]-2-[(1-ethyl-4-piperidyl)methyl]-2,4-dimethyl-1,3-benzodioxole-5-carboxamide], the half-inhibitory concentration (IC50) at PRC2-EZH2 (WT EZH2) turned out to be 0.023 µM; in assay [1], 0.037 µM; on PRC2-EZH1 (WT EZH1), 0.19 µM.

Consider `Cc1cc(C)c(CNC(=O)c2cc(Br)c3c(c2C)O[C@@](C)(CO[C@H]2CCN(C)C2)O3)c(=O)[nH]1` [Example 29, (2R)-7-Bromo-N-[(4,6-dimethyl-2-oxo-1,2-dihydropyridin-3-yl)methyl]-2,4-dimethyl-2-[[(3S)-1-methylpyrrolidin-3-yl]oxymethyl]-1,3-benzodioxole-5-carboxamide], for which the half-maximal inhibitory concentration (IC50) on PRC2-EZH2 (WT EZH2) is 0.0094 µM; in assay [1], 0.016 µM; on PRC2-EZH1 (WT EZH1), 0.068 µM.

In the case of `Cc1cc(C)c(CNC(=O)c2cc(Cl)c3c(c2C)OC(C)(C2CC4(CC(N(C)C)C4)C2)O3)c(=O)[nH]1` (stereo not drawn) [Example 30, 7-Chloro-2-[2-(dimethylamino)spiro[3.3]heptan-6-yl]-N-[(4,6-dimethyl-2-oxo-1,2-dihydropyridin-3-yl)methyl]-2,4-dimethyl-1,3-benzodioxole-5-carboxamide], the IC50 at PRC2-EZH2 (WT EZH2) stood at 0.021 µM; in assay [1], 0.016 µM; against PRC2-EZH1 (WT EZH1), 0.18 µM.

In the case of `CCN1CCC([C@@]2(C)Oc3c(Cl)cc(C(=O)NCc4c(C)cc(C)[nH]c4=O)c(C)c3O2)CC1` [Example 31, (2R)-7-Chloro-N-[(4,6-dimethyl-2-oxo-1,2-dihydropyridin-3-yl)methyl]-2-(1-ethyl-4-piperidyl)-2,4-dimethyl-1,3-benzodioxole-5-carboxamide], the IC50 at PRC2-EZH2 (WT EZH2) stood at 0.018 µM; in assay [1], 0.009 µM; against PRC2-EZH1 (WT EZH1) it was 0.11 µM.

For the compound `Cc1cc(C)c(CNC(=O)c2cc(Cl)c3c(c2C)OC(C)([C@@H]2CC[C@@H](N(C)C)CO2)O3)c(=O)[nH]1` (stereo partly drawn) [Example 38, 7-Chloro-2-[(2S,5R)-5-(dimethylamino)tetrahydropyran-2-yl]-N-[(4,6-dimethyl-2-oxo-1,2-dihydropyridin-3-yl)methyl]-2,4-dimethyl-1,3-benzodioxole-5-carboxamide], the IC50 against PRC2-EZH2 (WT EZH2) was determined as 0.012 µM; in assay [1] it was 0.0028 µM; against PRC2-EZH1 (WT EZH1), 0.057 µM.
